According to PubChem BioAssay AID248 (DTP/NCI, 2004):
Several values for one entry are separate records, joined by “and”; a condition that tells them apart may be missing. Identical values can stand only once. Toxic doses and inconclusive results are not listed. Rule as the data show it: active = T/C of 150% or more; inactive = T/C below 125%.

Test system: L1210 leukemia ip in BDF1 mice, survival T/C
Assay: NCI In Vivo Anticancer Drug Screen. Data for tumor model L1210 Leukemia (intraperitoneal) in B6D2F1 (BDF1) mice
Details: endpoint: mean survival time, higher = longer survival
Method in brief: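 Tumor was transplanted into mice, which were then dosed with test compound or vehicle alone. Survival was recorded for each group, and the treated figure was expressed relative to the control figure.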

[1] = dose: 25.0 mg/kg/injection, schedule: Q01DX009 (ip), vehicle: Klucel (hydroxypropylcellulose) (HPC)
[2] = dose: 25.0 mg/kg/injection, schedule: Q01DX009 (ip), vehicle: saline
[3] = dose: 50.0 mg/kg/injection, schedule: Q01DX009 (ip), vehicle: Klucel (hydroxypropylcellulose) (HPC)
[4] = dose: 50.0 mg/kg/injection, schedule: Q01DX009 (ip), vehicle: saline
[5] = dose: 100.0 mg/kg/injection, schedule: Q01DX009 (ip), vehicle: saline
[6] = dose: 100.0 mg/kg/injection, schedule: Q04DX003 (ip), vehicle: Klucel (hydroxypropylcellulose) (HPC)
[7] = dose: 100.0 mg/kg/injection, schedule: Q01DX009 (ip), vehicle: Klucel (hydroxypropylcellulose) (HPC)
[8] = dose: 200.0 mg/kg/injection, schedule: Q01DX009 (ip), vehicle: Klucel (hydroxypropylcellulose) (HPC)
[9] = dose: 100.0 mg/kg/injection, schedule: Q04DX003 (ip), vehicle: saline
[10] = dose: 200.0 mg/kg/injection, schedule: Q04DX003 (ip), vehicle: saline
[11] = dose: 400.0 mg/kg/injection, schedule: Q04DX003 (ip), vehicle: saline
[12] = dose: 50.0 mg/kg/injection, schedule: Q01DX009 (ip), vehicle: saline with Tween-80
[13] = dose: 100.0 mg/kg/injection, schedule: Q04DX002 (ip), vehicle: saline with Tween-80
[14] = dose: 100.0 mg/kg/injection, schedule: Q04DX003 (ip), vehicle: saline with Tween-80
[15] = dose: 200.0 mg/kg/injection, schedule: Q04DX002 (ip), vehicle: saline with Tween-80
[16] = dose: 200.0 mg/kg/injection, schedule: Q04DX003 (ip), vehicle: saline with Tween-80
[17] = dose: 200.0 mg/kg/injection, schedule: Q04DX003 (ip), vehicle: Klucel (hydroxypropylcellulose) (HPC)
[18] = dose: 400.0 mg/kg/injection, schedule: Q04DX003 (ip), vehicle: Klucel (hydroxypropylcellulose) (HPC)
[19] = dose: 400.0 mg/kg/injection, schedule: Q04DX002 (ip), vehicle: saline with Tween-80

Measured: T/C

CC(=O)N(C)c1ccc(/C=C2\C=Cc3ccccc32)cc1
inactive: dose: 50.0 mg/kg/injection, schedule: Q01DX001 (ip), vehicle: carboxymethylcellulose (CMC) 96 % of control | dose: 100.0 mg/kg/injection, schedule: Q01DX001 (ip), vehicle: carboxymethylcellulose (CMC) 98 % of control | dose: 200.0 mg/kg/injection, schedule: Q01DX001 (ip), vehicle: carboxymethylcellulose (CMC) 96 % of control | dose: 400.0 mg/kg/injection, schedule: Q01DX001 (ip), vehicle: carboxymethylcellulose (CMC) 96 % of control

CN(CCCl)Cc1ccccc1
inactive: dose: 8.2 mg/kg/injection, schedule: Q01DX Z (ip), vehicle: methylcellulose (MC) 107 % of control | dose: 18.8 mg/kg/injection, schedule: Q01DX Z (ip), vehicle: methylcellulose (MC) 109 % of control and 112 % of control | [1] 101 % of control | [2] 107 % of control | dose: 28.0 mg/kg/injection, schedule: Q01DX Z (ip), vehicle: methylcellulose (MC) 114 % of control and 121 % of control | [3] 112 % of control | [4] 103 % of control | dose: 50.0 mg/kg/injection, schedule: Q04DX003 (ip), vehicle: Klucel (hydroxypropylcellulose) (HPC) 101 % of control | dose: 63.0 mg/kg/injection, schedule: Q01DX Z (ip), vehicle: methylcellulose (MC) 87 % of control | [5] 97 % of control | [6] 108 % of control

C/C=C/C(=O)Nc1ccc(CC)cc1
inactive: [7] 95 % of control | [8] 92 % of control

CCC(=O)NC(N)=S
inactive: [1] 96 % of control | [3] 94 % of control

N=C(N)SCc1c(-c2ccccc2)oc(-c2ccccc2)c1CSC(=N)N
inactive: dose: 6.25 mg/kg/injection, schedule: Q01DX009 (ip), vehicle: saline with Tween-80 103 % of control | dose: 12.5 mg/kg/injection, schedule: Q01DX009 (ip), vehicle: saline with Tween-80 101 % of control | dose: 12.5 mg/kg/injection, schedule: Q04DX003 (ip), vehicle: saline with Tween-80 97 % of control | dose: 25.0 mg/kg/injection, schedule: Q04DX003 (ip), vehicle: saline with Tween-80 101 % of control

CC(c1ccccc1O)C1CCCCC1N=O (centres undefined)
inactive: dose: 100.0 mg/kg/injection, schedule: Q04DX002 (ip), vehicle: Klucel (hydroxypropylcellulose) (HPC) 105 % of control | dose: 200.0 mg/kg/injection, schedule: Q04DX002 (ip), vehicle: Klucel (hydroxypropylcellulose) (HPC) 102 % of control | dose: 400.0 mg/kg/injection, schedule: Q04DX002 (ip), vehicle: Klucel (hydroxypropylcellulose) (HPC) 98 % of control

C/C=C/C=N/NC(=O)c1ccc[n+](C)c1
inactive: [4] 112 % of control | [5] 104 % of control | dose: 200.0 mg/kg/injection, schedule: Q01DX009 (ip), vehicle: saline 112 % of control

CC(=O)CCC1(c2cc[n+](C)cc2)CCC(C)(O)C(C(C)=O)C1 (centres undefined)
inactive: [9] 93 % of control | [10] 94 % of control | [11] 100 % of control

CC(C)COC(CN)C(Cl)(Cl)Cl (centres undefined)
inactive: dose: 50.0 mg/kg/injection, schedule: Q01DX001 (ip), vehicle: saline with Tween-80 104 % of control | [12] 94 % of control and 110 % of control | dose: 50.0 mg/kg/injection, schedule: Q04DX003 (ip), vehicle: saline with Tween-80 100 % of control | dose: 100.0 mg/kg/injection, schedule: Q01DX001 (ip), vehicle: saline with Tween-80 103 % of control | dose: 100.0 mg/kg/injection, schedule: Q01DX009 (ip), vehicle: saline with Tween-80 97 % of control and 92 % of control | [13] 103 % of control and 104 % of control | [14] 95 % of control | dose: 200.0 mg/kg/injection, schedule: Q01DX001 (ip), vehicle: saline with Tween-80 97 % of control | dose: 200.0 mg/kg/injection, schedule: Q01DX009 (ip), vehicle: saline with Tween-80 93 % of control and 99 % of control | [15] 95 % of control and 101 % of control | [16] 92 % of control

CC1SCSCS1
inactive: [6] 111 % of control | [17] 88 % of control | [18] 98 % of control

CS(=O)(=O)OCCN(CCOS(C)(=O)=O)c1ccc(N=O)c(Cl)c1
inactive: dose: 0.08 mg/kg/injection, schedule: Q01DX015 (ip), vehicle: saline 97 % of control | dose: 0.14 mg/kg/injection, schedule: Q01DX015 (ip), vehicle: saline 103 % of control | dose: 0.22 mg/kg/injection, schedule: Q01DX001 (ip), vehicle: saline 114 % of control | dose: 0.23 mg/kg/injection, schedule: Q01DX015 (ip), vehicle: saline 114 % of control | dose: 0.5 mg/kg/injection, schedule: Q01DX001 (ip), vehicle: saline 122 % of control | dose: 1.0 mg/kg/injection, schedule: Q01DX015 (ip), vehicle: saline 124 % of control | dose: 2.0 mg/kg/injection, schedule: Q01DX015 (ip), vehicle: saline 97 % of control | dose: 4.0 mg/kg/injection, schedule: Q01DX001 (ip), vehicle: saline 117 % of control | dose: 4.5 mg/kg/injection, schedule: Q01DX001 (ip), vehicle: saline 86 % of control

Cc1cc(S(=O)(=O)F)ccc1NC(=O)CCc1ccc(N2C(N)=NC(N)=NC2(C)C)cc1
inactive: dose: 100.0 mg/kg/injection, schedule: Q01DX001 (ip), vehicle: Klucel (hydroxypropylcellulose) (HPC) 98 % of control | dose: 200.0 mg/kg/injection, schedule: Q01DX001 (ip), vehicle: Klucel (hydroxypropylcellulose) (HPC) 102 % of control

CCCCCCCCN(N)C12CC3CC(CC(C3)C1)C2
inactive: dose: 6.25 mg/kg/injection, schedule: Q01DX009 (ip), vehicle: saline 106 % of control | dose: 12.5 mg/kg/injection, schedule: Q01DX009 (ip), vehicle: saline 107 % of control | dose: 12.5 mg/kg/injection, schedule: Q04DX003 (ip), vehicle: saline 113 % of control | [2] 106 % of control | dose: 25.0 mg/kg/injection, schedule: Q04DX003 (ip), vehicle: saline 113 % of control | [4] 87 % of control | dose: 50.0 mg/kg/injection, schedule: Q04DX003 (ip), vehicle: saline 113 % of control

O=C(COc1cccc(Cl)c1)Nc1ccc(C(=O)CCl)cc1
inactive: dose: 100.0 mg/kg/injection, schedule: Q01DX001 (ip), vehicle: gum acacia 90 % of control | dose: 200.0 mg/kg/injection, schedule: Q01DX001 (ip), vehicle: gum acacia 100 % of control | dose: 400.0 mg/kg/injection, schedule: Q01DX001 (ip), vehicle: gum acacia 99 % of control

II
inactive: dose: 12.0 mg/kg/injection, schedule: Q01DX009 (ip), vehicle: acetone 96 % of control | dose: 25.0 mg/kg/injection, schedule: Q01DX009 (ip), vehicle: acetone 93 % of control | dose: 50.0 mg/kg/injection, schedule: Q01DX009 (ip), vehicle: acetone 106 % of control

CC(=O)c1ccc(OC(=O)Nc2ccc(Cl)cc2)cc1
inactive: dose: 25.0 mg/kg/injection, schedule: Q01DX009 (ip), vehicle: saline with Tween-80 106 % of control and 108 % of control | [12] 106 % of control and 112 % of control | [13] 100 % of control and 103 % of control | [14] 103 % of control | [15] 95 % of control and 92 % of control | [16] 108 % of control | [19] 97 % of control and 100 % of control

O=C(N/N=C\c1c[nH]c2ccccc12)N/N=C/c1c[nH]c2ccccc12
inactive: [13] 97 % of control | [15] 104 % of control | [19] 97 % of control

Cc1cc(=O)[nH]c2ccc(-c3ccc4[nH]c(=O)cc(C)c4c3)cc12
inactive: [7] 101 % of control | [6] 102 % of control | [8] 95 % of control | [17] 100 % of control | dose: 400.0 mg/kg/injection, schedule: Q01DX009 (ip), vehicle: Klucel (hydroxypropylcellulose) (HPC) 95 % of control | [18] 100 % of control

Clc1ccc(Cl)c(N=Cc2ccc3c(c2)OCO3)c1
inactive: [9] 92 % of control | [10] 95 % of control | [11] 92 % of control
